Values of other authors as cited in patent US20170083675A1, “Method for Selecting Patient Subpopulation for Custirsen Treatment” (OncoGenex Technologies Inc., priority 2015, published 2017).

Test system: metastatic castrate resistant prostate cancer (CRPC)
Details: second-line chemotherapy

CO[C@H]1C(=O)[C@]2(C)[C@@H](OC)C[C@H]3OC[C@@]3(OC(C)=O)[C@H]2[C@H](OC(=O)c2ccccc2)[C@]2(O)C[C@H](OC(=O)[C@H](O)[C@@H](NC(=O)OC(C)(C)C)c3ccccc3)C(C)=C1C2(C)C [cabazitaxel]
survival compared to mitoxantrone (in words): survival advantage
